BindingDB's records for doi:10.1111/j.1476-5381.1996.tb15304.x (Smithkline Beecham Pharmaceuticals, 1996)

Tests used:
[1] = target: T1, 5-hydroxytryptamine receptor 2C (Rattus norvegicus, UniProt P08909)
T1 sequence (P08909 whole entry): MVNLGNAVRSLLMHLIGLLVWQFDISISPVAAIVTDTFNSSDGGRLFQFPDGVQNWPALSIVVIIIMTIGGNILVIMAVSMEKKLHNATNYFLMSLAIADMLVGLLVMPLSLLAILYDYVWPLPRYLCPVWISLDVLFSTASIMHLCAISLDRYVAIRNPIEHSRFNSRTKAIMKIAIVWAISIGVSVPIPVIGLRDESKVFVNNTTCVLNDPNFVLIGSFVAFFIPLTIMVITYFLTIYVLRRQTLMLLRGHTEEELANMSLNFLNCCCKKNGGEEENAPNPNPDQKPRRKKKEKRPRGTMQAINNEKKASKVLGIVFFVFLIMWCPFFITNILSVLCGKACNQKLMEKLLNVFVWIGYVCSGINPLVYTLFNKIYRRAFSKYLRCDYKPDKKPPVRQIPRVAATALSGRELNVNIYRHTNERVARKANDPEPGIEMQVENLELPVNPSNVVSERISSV

[2] = target: T2, 5-hydroxytryptamine receptor 3A (Rattus norvegicus, UniProt P35563)
T2 sequence (P35563 whole entry): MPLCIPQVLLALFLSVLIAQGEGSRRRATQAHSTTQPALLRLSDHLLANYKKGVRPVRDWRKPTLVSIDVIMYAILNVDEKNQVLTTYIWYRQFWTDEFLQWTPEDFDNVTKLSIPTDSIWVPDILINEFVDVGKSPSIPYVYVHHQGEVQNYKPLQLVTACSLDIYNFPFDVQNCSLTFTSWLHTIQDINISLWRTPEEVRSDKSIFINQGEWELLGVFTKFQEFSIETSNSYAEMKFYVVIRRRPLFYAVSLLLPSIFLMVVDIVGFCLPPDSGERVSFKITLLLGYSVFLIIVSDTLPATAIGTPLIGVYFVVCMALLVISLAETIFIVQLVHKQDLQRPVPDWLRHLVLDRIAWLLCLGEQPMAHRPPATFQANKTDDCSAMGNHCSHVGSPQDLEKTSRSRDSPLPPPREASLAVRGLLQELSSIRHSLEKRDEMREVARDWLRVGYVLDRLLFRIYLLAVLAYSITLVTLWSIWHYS

[3] = target: T3, Adrenergic alpha2 receptor (Mesocricetus auratus, UniProt Q60533)
T3 sequence (Q60533 whole entry): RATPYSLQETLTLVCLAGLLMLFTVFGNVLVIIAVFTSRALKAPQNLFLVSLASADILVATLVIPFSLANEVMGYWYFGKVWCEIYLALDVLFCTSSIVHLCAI

[4] = target: D(2) dopamine receptor (Homo sapiens, UniProt P14416)
[5] = target: 5-hydroxytryptamine receptor 7 (Homo sapiens, UniProt P34969)
[6] = target: 5-hydroxytryptamine receptor 1D (Homo sapiens, UniProt P28221)
[7] = target: Beta-1 adrenergic receptor (Homo sapiens, UniProt P08588)
[8] = target: 5-hydroxytryptamine receptor 1B (Homo sapiens, UniProt P28222)
[9] = target: T4, Solute carrier family 22 member 1 (Rattus norvegicus, UniProt Q63089)
T4 sequence (Q63089 whole entry): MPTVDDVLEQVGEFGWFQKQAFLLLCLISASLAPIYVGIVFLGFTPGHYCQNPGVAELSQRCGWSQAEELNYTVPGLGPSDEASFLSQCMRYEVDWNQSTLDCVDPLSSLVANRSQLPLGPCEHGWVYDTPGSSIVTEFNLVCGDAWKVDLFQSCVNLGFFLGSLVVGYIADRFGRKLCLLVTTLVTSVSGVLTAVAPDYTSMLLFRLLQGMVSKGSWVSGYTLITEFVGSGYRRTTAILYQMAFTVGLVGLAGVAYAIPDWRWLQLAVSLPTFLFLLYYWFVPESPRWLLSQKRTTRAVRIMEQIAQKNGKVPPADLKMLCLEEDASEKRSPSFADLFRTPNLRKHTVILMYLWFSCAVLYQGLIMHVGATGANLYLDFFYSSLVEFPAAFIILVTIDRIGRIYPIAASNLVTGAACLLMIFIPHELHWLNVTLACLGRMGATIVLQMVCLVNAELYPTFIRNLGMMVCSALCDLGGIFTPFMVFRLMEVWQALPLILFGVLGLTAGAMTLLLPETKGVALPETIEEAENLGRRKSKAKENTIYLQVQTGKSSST

[10] = target: T5, 5-hydroxytryptamine receptor 2C (Homo sapiens, UniProt P28335)
T5 sequence (P28335 whole entry): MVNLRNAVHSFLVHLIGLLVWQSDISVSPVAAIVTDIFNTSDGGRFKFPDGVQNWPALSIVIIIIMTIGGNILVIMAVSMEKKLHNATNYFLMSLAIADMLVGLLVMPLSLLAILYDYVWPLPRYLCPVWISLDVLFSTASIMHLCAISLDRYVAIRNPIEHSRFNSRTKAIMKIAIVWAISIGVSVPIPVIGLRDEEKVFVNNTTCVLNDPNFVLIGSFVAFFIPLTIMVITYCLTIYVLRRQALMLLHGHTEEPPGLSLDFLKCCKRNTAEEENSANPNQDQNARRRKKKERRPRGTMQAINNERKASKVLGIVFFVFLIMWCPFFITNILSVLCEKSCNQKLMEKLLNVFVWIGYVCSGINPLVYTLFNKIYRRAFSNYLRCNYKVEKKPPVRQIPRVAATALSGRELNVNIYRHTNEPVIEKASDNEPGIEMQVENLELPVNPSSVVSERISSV

[11] = target: D(1A) dopamine receptor (Homo sapiens, UniProt P21728)
[12] = target: 5-hydroxytryptamine receptor 7 (Rattus norvegicus, UniProt P32305)
[13] = target: 5-hydroxytryptamine receptor 1E (Homo sapiens, UniProt P28566)
[14] = target: T6, D(4) dopamine receptor (Homo sapiens, UniProt P21917)
T6 sequence (P21917 whole entry): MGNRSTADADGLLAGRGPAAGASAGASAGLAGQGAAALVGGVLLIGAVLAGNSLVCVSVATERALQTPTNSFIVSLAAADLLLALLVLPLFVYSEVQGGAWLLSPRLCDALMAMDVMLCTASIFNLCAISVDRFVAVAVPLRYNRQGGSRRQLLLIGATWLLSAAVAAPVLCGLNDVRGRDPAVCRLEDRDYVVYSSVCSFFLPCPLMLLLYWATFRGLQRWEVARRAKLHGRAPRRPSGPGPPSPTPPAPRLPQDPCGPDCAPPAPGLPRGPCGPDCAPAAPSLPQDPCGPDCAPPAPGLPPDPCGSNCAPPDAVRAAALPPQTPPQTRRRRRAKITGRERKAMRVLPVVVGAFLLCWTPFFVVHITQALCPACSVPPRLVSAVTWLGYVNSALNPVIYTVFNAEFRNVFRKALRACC

[15] = target: Histamine H2 receptor (Mus musculus, UniProt P97292)
[16] = target: 5-hydroxytryptamine receptor 2A (Rattus norvegicus, UniProt P14842)
[17] = target: T7, 5-hydroxytryptamine receptor 1F (Homo sapiens, UniProt P30939)
T7 sequence (P30939 whole entry): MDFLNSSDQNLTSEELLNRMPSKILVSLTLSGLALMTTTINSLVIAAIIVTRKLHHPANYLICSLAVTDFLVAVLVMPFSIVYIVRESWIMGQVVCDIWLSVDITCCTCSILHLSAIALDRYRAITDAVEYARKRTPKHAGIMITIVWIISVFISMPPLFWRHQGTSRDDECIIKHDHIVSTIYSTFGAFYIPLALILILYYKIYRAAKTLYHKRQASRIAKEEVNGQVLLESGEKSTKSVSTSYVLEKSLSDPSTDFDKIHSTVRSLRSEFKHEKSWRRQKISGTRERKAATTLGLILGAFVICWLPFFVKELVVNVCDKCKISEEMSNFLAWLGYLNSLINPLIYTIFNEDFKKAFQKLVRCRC

[18] = target: 5-hydroxytryptamine receptor 4 (Rattus norvegicus, UniProt Q62758)
[19] = target: Beta-2 adrenergic receptor (Mus musculus, UniProt P18762)
Sequence of Beta-2 adrenergic receptor (P18762 whole entry): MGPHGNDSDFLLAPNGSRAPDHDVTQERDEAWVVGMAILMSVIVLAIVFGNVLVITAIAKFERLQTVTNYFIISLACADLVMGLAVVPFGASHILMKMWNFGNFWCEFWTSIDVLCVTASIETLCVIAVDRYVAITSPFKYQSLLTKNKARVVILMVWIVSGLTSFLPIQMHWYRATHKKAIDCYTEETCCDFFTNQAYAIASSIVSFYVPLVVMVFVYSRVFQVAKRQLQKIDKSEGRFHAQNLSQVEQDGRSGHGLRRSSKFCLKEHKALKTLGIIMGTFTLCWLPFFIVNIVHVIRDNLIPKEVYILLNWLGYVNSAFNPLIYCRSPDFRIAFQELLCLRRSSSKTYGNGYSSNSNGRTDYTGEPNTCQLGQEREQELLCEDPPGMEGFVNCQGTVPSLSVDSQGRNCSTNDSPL

Sequence of D(1A) dopamine receptor (P21728 whole entry): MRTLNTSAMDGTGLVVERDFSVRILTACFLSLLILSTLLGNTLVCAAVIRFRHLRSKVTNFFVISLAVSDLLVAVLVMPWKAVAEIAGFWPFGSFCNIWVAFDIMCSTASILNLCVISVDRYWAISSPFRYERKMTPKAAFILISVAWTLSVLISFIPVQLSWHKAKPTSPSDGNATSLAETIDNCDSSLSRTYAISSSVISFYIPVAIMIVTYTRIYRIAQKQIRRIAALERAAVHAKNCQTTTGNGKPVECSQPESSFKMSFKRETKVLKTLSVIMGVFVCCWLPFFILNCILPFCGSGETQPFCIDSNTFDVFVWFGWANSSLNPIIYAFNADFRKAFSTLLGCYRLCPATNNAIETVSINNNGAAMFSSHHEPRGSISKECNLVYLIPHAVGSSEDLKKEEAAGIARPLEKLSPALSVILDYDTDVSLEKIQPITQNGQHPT
Sequence of D(2) dopamine receptor (P14416 whole entry): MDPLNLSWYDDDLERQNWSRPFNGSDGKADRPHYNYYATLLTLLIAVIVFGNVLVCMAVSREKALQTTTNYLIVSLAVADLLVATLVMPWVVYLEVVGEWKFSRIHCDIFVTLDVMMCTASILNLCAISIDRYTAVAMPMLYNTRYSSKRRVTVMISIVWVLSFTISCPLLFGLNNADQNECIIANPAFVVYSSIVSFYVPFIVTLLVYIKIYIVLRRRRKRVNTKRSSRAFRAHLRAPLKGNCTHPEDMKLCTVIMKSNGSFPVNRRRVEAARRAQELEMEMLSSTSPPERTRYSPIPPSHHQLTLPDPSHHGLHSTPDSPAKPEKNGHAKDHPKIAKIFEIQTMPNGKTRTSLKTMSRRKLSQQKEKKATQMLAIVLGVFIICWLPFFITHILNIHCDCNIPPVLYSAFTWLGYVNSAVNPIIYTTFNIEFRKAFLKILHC
Sequence of 5-hydroxytryptamine receptor 1E (P28566 whole entry): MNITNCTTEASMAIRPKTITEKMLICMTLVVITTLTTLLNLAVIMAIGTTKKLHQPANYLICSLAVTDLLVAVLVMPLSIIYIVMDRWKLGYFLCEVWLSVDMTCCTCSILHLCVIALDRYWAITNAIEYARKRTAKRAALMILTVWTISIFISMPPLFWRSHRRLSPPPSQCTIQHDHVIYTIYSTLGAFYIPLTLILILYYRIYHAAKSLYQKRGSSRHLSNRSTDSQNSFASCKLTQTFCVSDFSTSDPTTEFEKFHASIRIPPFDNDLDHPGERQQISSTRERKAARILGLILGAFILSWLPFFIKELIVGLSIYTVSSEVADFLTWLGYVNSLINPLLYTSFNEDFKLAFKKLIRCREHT
Sequence of Histamine H2 receptor (P97292 whole entry): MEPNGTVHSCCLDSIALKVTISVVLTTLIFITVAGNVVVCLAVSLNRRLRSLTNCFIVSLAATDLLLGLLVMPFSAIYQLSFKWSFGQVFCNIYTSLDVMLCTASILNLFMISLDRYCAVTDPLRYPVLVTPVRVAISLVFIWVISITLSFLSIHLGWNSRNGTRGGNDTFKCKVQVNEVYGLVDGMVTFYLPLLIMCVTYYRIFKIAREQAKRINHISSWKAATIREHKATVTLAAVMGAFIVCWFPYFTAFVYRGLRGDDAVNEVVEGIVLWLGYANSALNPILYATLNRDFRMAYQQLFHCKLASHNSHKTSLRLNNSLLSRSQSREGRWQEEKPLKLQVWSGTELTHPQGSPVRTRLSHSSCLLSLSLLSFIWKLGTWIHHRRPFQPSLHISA
Sequence of 5-hydroxytryptamine receptor 4 (Q62758 whole entry): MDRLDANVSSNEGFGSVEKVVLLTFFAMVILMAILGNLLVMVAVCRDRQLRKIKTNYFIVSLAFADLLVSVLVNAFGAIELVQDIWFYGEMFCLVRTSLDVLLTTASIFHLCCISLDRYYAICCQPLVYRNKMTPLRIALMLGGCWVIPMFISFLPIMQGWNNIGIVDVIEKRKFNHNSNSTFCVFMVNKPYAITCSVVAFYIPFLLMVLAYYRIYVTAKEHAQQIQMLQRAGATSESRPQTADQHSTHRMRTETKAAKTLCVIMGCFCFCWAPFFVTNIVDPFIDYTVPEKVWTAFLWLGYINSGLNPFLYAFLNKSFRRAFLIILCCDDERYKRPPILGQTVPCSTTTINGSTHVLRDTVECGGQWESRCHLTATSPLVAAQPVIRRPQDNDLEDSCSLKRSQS
Sequence of 5-hydroxytryptamine receptor 7 (Rattus norvegicus, UniProt P32305) (P32305 whole entry): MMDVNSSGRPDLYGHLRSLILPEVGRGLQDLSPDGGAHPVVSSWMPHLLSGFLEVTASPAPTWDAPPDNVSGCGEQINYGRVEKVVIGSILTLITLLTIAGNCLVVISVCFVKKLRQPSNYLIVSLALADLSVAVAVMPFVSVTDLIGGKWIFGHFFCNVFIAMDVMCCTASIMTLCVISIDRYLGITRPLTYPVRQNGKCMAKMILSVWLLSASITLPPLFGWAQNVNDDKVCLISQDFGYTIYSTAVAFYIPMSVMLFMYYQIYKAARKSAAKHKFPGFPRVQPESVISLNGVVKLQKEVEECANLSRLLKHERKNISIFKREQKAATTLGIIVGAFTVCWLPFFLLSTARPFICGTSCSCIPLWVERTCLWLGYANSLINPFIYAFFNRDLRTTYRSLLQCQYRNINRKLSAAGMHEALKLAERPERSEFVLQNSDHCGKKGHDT
Sequence of 5-hydroxytryptamine receptor 1D (P28221 whole entry): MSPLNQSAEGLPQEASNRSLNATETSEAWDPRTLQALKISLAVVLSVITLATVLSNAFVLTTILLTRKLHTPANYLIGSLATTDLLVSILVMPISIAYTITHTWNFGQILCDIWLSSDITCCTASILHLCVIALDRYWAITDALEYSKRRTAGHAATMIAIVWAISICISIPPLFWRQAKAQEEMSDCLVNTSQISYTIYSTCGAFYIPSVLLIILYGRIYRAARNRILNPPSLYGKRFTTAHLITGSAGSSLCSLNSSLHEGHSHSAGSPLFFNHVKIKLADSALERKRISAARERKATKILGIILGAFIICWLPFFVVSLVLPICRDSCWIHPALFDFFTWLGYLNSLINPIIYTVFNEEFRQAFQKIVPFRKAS
Sequence of 5-hydroxytryptamine receptor 2A (P14842 whole entry): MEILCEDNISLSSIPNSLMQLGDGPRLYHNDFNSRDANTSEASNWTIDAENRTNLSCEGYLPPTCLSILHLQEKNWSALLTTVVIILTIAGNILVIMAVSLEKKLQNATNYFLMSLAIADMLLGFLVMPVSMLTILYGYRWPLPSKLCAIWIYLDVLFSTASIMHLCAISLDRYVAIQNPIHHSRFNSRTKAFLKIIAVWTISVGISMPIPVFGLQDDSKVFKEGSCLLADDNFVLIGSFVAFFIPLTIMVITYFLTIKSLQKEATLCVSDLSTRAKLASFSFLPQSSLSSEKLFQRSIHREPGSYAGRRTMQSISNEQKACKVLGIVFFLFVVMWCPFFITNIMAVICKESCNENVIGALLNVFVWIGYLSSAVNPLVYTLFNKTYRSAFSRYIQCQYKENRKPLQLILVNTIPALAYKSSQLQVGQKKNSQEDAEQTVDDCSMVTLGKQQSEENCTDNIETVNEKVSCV
Sequence of 5-hydroxytryptamine receptor 1B (P28222 whole entry): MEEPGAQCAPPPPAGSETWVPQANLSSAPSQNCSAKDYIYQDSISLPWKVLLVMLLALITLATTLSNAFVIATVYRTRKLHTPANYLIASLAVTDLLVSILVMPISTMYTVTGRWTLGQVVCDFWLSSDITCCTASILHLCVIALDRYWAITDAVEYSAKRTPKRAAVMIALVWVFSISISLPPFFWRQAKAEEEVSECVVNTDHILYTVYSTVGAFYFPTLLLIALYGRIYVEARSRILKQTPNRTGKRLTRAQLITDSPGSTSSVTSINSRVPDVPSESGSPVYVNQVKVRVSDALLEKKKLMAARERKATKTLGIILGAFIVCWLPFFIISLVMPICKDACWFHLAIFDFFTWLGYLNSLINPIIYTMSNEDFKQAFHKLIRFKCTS
Sequence of 5-hydroxytryptamine receptor 7 (Homo sapiens, UniProt P34969) (P34969 whole entry): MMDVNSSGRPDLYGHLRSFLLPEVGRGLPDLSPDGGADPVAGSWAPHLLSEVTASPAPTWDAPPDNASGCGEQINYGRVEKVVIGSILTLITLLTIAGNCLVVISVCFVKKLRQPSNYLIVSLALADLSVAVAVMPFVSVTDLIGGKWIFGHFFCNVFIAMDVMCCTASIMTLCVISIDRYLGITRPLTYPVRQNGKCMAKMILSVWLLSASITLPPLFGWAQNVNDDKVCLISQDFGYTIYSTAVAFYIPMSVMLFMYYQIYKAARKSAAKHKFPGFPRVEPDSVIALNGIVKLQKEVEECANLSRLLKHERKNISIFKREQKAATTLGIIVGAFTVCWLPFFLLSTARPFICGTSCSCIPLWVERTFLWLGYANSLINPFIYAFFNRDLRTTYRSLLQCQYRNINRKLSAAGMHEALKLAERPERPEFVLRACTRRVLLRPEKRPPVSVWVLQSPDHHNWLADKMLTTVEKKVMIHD

Work on `CC(N)Cc1c[nH]c2ccc(OCc3cccs3)cc12` (centres undefined) [NSC_5311036] yielded a Ki [1] of 0.126 µM, a Ki [2] of 0.316 µM and a Ki [3] of over 10 µM. For the same compound, the Ki [4] was over 10 µM, the Ki [5] was 3.16 µM and the Ki [6] was 0.631 µM. It also gave a Ki [7] of over 10 µM, a Ki [8] of 0.126 µM and a Ki [9] of over 10 µM. It also gave a Ki [10] of 0.501 µM, a Ki [11] of over 10 µM and a Ki [12] of 1 µM. For the same compound, the Ki [13] was 3.16 µM, the Ki [14] was over 10 µM and the Ki [15] was over 10 µM. It also gave a Ki [16] of 0.251 µM, a Ki [17] of 7.94 µM and a Ki [18] of over 10 µM. For the same compound, the Ki [19] was over 10 µM.
